# ChEMBL document CHEMBL1201862, “PubChem BioAssay data set” (2004)
# Calls of active or inactive are those of the source.
# Key:
# Protein Wnt-3a = Protein Wnt-3a (Mus musculus, UniProt P27467); assay: antagonism of Wnt3a pathway luciferase reporter – Wnt-LIGHT cells, luminescence, selectivity assay for Gli-SUFU antagonist project, dose response (AID 651570); type: functional; settings: read-out: IC50_Mean;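 note: Wnt-LIGHT reporter cells stimulated with conditioned medium from Wnt3a-producing cells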
# [1] = target: T1, High affinity choline transporter 1 (Homo sapiens, UniProt Q9GZV3); assay: human choline transporter blockers, potency – cell-based, 5-point CRC, membrane potential dye, dose response (AID 504840); type: functional
# T1 sequence (Q9GZV3 whole entry): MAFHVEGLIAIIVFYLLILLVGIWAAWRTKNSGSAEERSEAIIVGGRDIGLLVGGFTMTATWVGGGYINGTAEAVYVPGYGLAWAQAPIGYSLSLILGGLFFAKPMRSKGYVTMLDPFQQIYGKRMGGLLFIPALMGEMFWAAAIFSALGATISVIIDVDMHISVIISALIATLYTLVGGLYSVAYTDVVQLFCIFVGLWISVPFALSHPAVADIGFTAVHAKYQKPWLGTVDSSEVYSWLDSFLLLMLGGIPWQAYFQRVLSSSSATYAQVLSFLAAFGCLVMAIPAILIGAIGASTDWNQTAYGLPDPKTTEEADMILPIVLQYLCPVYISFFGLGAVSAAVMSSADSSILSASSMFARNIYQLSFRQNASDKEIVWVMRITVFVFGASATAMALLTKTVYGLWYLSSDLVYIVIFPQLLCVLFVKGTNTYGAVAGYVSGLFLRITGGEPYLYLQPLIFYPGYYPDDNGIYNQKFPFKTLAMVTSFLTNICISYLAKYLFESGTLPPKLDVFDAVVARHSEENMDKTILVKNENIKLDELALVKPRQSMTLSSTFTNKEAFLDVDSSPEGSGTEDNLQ
# [2] = target: T1, High affinity choline transporter 1; assay: human choline transporter blockers, potency – cell-based, 10-point CRC, membrane potential dye, dose response (AID 588401); type: functional;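 note: membrane potential dye fluorescence of choline-evoked depolarization via CHT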
# [3] = target: 26S proteasome non-ATPase regulatory subunit 14 (Homo sapiens, UniProt O00487); assay: inhibition of proteasome subunit RPN11 – biochemical, fluorescence polarization, uHTS hits, confirmation (AID 602368); type: functional
# [4] = target: 72 kDa type IV collagenase (Homo sapiens, UniProt P08253); assay: Dose Response validation of uHTS RPN11 inhibitor hits using a MMP-2 Fluorescence assay.; type: functional
# Prothrombin = Prothrombin (Bos taurus, UniProt P00735); assay: thrombin protease inhibitors – biochemical, fluorescence polarization, uHTS hits, dose response (AID 602369); type: functional
# Melanocortin receptor 4 [5] = target: T2, Melanocortin receptor 4 (Homo sapiens, UniProt P32245); type: functional, cell-based;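 note: Cell-based assay with luminescence read-out, confirmatory dose-response testing for agonist activity of biased ligands at MC4R; human U2OS cells with tagged receptor and beta-arrestin; potency of agonists that increase receptor coupling to beta-arrestin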
# [6] = Trypanosoma cruzi growth suppression in host cells – NIH3T3 host cells, beta-gal luminescence, confirmation (AID 2044); type: functional, cell-based;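 note: intracellular parasites grown in NIH/3T3 mouse fibroblasts as host cells; luminescent beta-galactosidase reporter signal from transgenic T. cruzi replicating inside host cells; inhibitors lower the luminescence signal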
# [7] = NIH3T3 cell viability loss – ATP luminescence, mouse fibroblasts, counter-screen, dose response (AID 2010); type: functional, cell-based;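 note: cells exposed to compound for about 90 hours before reading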
# [8] = reduction of Shn3 3'UTR-driven luciferase in osteoblasts – cell-based, Clone20 osteoblasts, firefly luciferase, cherry-picked, dose response (AID 624132); type: functional;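 note: firefly luciferase luminescence from reporter carrying the Shn3 3'UTR in osteoblasts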
# [9] = loss of viability in HepG2 cells – cell-based, CellTiter-Glo, cherry-picked, cytotoxicity control for Shn3 inhibitor project, dose response (AID 624134); type: functional
# [10] = non-specific 3'UTR reporter inhibition in Clone20-Shn3RL – cell-based, Renilla luciferase, cherry-picked, counter-screen for Shn3 inhibitor project, dose response (AID 624133); type: functional
# [11] = target: T3, Endoribonuclease toxin MazF (Escherichia coli K-12, UniProt P0AE70); assay: activation of MazEF endoribonuclease cleavage – biochemical, fluorescence, single-stranded RNA substrate, uHTS hits, dose response (AID 588481); type: functional
# T3 sequence (P0AE70 whole entry): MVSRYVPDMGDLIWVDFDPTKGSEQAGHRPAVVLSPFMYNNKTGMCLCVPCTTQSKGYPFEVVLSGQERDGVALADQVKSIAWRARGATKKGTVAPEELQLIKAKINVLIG
# [12] = target: T3, Endoribonuclease toxin MazF; assay: substrate-only fluorescence increase artefacts – biochemical, single-stranded RNase substrate, counter-screen for MazEF activator project, dose response (AID 588502); type: functional
# HEK293 = assay: EBV LMP1 TES2 canonical NF-kB signalling blockers – cell-based, HEK293, luciferase, cherry-pick, dose response (AID 588343); type: functional; settings: Homo sapiens
# [13] = target: T4, Replicative DNA helicase DnaB (Mycobacterium tuberculosis, UniProt P9WMR3); assay: DnaB intein splicing inhibitors, dose response, biochemical, cell-free fluorescence (AID 449749); type: functional
# T4 sequence (P9WMR3 whole entry): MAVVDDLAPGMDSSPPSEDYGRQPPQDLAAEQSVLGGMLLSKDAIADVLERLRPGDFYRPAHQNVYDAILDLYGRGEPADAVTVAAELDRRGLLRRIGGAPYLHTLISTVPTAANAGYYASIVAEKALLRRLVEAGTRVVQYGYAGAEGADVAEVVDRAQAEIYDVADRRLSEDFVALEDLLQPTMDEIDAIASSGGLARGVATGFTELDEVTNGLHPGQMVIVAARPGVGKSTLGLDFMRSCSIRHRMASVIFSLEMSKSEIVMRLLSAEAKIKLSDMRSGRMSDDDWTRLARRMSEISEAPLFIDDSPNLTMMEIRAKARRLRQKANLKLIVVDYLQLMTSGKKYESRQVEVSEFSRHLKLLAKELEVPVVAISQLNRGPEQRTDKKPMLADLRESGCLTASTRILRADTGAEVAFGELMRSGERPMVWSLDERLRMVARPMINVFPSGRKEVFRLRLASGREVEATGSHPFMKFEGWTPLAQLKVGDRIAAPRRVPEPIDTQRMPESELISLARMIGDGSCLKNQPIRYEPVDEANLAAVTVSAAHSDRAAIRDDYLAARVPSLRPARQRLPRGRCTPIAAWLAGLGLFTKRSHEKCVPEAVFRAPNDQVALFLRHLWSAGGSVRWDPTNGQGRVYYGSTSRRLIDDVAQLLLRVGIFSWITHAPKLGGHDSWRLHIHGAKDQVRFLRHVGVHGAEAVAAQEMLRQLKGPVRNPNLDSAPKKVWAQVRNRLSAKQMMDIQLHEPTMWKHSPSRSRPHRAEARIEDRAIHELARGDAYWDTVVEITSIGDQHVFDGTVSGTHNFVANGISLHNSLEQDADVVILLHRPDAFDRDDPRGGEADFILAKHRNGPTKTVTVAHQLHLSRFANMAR
# Protein RecA = target: T5, Protein RecA (Mycobacterium tuberculosis, UniProt P9WHJ3); assay: Fluorescence Cell-Free Homogeneous Dose Retest to Identify Inhibitors of RecA-Intein Splicing Activity. [Related pubchem assays (depositor defined):AID2097, AID2223, AID489010, AID492950]; type: functional
# T5 sequence (P9WHJ3 whole entry): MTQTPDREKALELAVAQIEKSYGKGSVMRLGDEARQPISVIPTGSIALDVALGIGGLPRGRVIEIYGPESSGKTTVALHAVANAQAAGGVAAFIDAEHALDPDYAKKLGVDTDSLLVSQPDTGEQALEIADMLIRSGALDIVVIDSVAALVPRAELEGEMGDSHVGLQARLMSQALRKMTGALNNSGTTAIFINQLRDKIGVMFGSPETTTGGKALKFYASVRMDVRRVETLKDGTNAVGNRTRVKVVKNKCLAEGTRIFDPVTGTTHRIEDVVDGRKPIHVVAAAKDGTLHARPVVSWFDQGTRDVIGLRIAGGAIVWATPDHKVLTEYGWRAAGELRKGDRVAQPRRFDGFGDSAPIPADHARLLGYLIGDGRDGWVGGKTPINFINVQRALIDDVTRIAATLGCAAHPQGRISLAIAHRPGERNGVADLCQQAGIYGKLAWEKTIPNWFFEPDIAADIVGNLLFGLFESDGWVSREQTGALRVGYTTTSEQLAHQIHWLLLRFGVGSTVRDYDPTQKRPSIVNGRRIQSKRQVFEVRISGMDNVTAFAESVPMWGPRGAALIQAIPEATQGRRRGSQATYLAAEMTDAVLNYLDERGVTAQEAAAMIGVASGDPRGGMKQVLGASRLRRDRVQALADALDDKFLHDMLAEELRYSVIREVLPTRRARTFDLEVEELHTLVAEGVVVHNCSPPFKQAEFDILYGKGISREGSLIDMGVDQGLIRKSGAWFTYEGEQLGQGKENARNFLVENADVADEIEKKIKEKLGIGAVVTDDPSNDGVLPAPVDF
# INS1 = assay: INS-1E survival protection against cytokine death – cell-based, luminescence, retest, dose response (AID 449756); type: functional; settings: Rattus norvegicus;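 note: cell death triggered by IL-1 beta plus TNF-alpha plus IFN-gamma mixture; protective hits raise ATP signal compared with cytokine alone wells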
# [14] = target: T6, Carboxy-terminal domain RNA polymerase II polypeptide A small phosphatase 1 (Homo sapiens, UniProt Q9GZU7); assay: CTDSP1 inhibitors, concentration-response, biochemical, absorbance readout, ultra-high-throughput screen actives (AID 540297); type: functional
# T6 sequence (Q9GZU7 whole entry): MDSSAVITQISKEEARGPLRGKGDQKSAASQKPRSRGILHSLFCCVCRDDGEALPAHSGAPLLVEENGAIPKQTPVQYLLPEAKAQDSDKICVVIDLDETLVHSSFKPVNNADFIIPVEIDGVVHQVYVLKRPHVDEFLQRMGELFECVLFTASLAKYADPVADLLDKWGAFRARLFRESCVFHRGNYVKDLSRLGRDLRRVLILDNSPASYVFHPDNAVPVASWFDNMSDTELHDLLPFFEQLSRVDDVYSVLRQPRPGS
# Melanocortin receptor 4 [15] = target: T2, Melanocortin receptor 4; assay: inhibitors of MC4R cAMP signaling – cell-based, TR-FRET, biased antagonists, dose response (AID 602298); type: functional;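 note: antagonist potency against agonist-stimulated cAMP production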
# [16] = cAMP pathway inhibition in counterscreen cell line – TR-FRET cAMP detection, counter-screen for MC4R biased antagonist project, dose response (AID 602305); type: functional, cell-based;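 note: U2OS cells stimulated with forskolin near its EC80 as the cAMP inducer; potency is for inhibition of forskolin-stimulated cAMP signaling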
# [17] = target: T7, Mitochondrial peptide methionine sulfoxide reductase (Bos taurus, UniProt P54149); type: functional;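 note: absorbance read-out, biochemical high-throughput dose-response screen for MsrA inhibitors, confirmatory; recombinant bovine MsrA coupled to E. coli TrxB with NADPH and selenocystamine; potency is for inhibitors of MsrA activity on DMSO substrate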
# T7 sequence (P54149 whole entry): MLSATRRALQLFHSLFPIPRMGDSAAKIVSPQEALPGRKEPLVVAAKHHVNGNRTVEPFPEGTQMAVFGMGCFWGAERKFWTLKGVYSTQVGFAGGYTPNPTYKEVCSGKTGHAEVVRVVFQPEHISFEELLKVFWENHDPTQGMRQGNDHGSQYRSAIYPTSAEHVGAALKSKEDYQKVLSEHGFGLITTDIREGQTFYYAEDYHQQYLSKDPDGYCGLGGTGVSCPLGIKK
# [18] = intracellular Trypanosoma cruzi inhibitors in host cells – cell-based, plate reader, cherry-pick samples, set 3, dose response (AID 651818); type: functional;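 note: compounds incubated with infected cells for about four days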
# T2 sequence (P32245 whole entry): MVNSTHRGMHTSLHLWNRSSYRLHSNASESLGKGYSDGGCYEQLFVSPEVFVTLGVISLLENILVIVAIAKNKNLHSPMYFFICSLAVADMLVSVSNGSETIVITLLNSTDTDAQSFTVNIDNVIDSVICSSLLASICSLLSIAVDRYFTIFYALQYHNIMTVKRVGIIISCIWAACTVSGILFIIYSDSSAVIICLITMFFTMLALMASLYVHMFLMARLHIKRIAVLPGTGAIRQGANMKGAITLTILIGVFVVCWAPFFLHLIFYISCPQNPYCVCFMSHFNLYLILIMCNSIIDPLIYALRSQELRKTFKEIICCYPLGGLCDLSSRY
# 26S proteasome non-ATPase regulatory subunit 14, sequence (O00487 whole entry): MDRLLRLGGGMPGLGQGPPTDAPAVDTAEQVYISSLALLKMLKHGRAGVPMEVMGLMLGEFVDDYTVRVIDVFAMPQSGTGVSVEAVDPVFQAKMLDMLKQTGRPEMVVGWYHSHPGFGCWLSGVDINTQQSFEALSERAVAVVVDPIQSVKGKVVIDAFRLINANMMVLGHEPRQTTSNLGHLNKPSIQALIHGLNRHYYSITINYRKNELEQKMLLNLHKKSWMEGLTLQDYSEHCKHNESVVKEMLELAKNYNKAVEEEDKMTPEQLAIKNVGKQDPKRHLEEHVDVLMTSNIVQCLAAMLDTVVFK
# 72 kDa type IV collagenase, sequence (P08253 whole entry): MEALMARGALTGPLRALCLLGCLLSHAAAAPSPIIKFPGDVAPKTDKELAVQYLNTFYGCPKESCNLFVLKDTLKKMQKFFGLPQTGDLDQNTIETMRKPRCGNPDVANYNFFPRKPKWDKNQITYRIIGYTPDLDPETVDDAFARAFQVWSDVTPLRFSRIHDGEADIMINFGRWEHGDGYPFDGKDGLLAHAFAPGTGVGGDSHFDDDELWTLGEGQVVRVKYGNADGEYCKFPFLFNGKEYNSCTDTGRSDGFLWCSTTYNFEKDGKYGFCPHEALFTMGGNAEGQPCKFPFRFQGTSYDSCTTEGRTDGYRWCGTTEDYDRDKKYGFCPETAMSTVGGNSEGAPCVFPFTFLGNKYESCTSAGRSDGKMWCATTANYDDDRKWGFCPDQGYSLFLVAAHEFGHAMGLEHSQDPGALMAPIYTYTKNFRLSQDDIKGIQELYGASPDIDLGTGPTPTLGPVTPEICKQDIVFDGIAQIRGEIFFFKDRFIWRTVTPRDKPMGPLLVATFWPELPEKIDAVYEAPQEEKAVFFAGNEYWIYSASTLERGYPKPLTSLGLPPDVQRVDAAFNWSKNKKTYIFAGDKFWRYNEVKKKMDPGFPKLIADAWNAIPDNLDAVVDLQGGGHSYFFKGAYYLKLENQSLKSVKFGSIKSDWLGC
# Protein Wnt-3a, sequence (P27467 whole entry): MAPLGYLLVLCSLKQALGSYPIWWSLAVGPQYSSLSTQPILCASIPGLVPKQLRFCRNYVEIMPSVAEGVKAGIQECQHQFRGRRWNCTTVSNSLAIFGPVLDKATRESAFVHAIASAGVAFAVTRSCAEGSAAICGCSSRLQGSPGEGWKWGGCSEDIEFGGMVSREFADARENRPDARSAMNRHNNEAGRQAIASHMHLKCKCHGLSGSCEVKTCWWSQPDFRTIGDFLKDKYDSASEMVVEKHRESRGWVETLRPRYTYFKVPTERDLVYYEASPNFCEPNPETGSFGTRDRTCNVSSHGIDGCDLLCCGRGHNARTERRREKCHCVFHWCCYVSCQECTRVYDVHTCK
smiles,measurement,setting,value
Cn1c(=O)c2c(nc(NCc3ccco3)n2Cc2ccc(Cl)cc2Cl)n(C)c1=O,IC50,Protein Wnt-3a,1.94 µM (active)
CCc1cccc(CC)c1NC(=O)c1cccc(S(=O)(=O)N2CCN(C)CC2)c1,IC50,[1],7.52 µM (active)
same,IC50,[2],8.43 µM (active)
C[C@]12CCC[C@H](O1)c1c(cc3c(c1O)C(=O)c1c(O)cc(O)cc1C3=O)O2,IC50,[3],2.94 µM (active)
same,IC50,[4],78.4 µM (active)
same,IC50,Prothrombin,4.81 µM (active)
O=C1OC(c2ccccc2)(c2ccc(O)cc2)c2ccccc21 (configuration not stated),EC50,Melanocortin receptor 4 [5],> 89.2 µM (inactive)
CCn1/c(=N\C(=O)CS(=O)(=O)c2ccccc2)sc2cccc(OC)c21,EC50,[6],1.74 µM (active)
same,EC50,[7],> 60 µM (not active)
same,AC50,[8],1.68 µM (active)
same,AC50,[9],> 70 µM (inactive)
same,AC50,[10],1.58 µM (active)
same,IC50,Protein Wnt-3a,1.03 µM (active)
Cc1cc(O)cc(O)c1/C=N/Cc1ccco1,EC50,[11],> 99 µM (inactive)
same,EC50,[12],21.9 µM (inactive)
Cc1cc(C)n(-c2ccc(NN=C(C#N)C#N)cc2)n1,AC50,HEK293,1.82 µM (active)
same,AC50,[13],5.45 µM (active)
same,EC50,Protein RecA,9.25 µM (active)
COc1ccc(Nc2nc3ccc(C)cc3cc2C#N)c(OC)c1,EC50,[11],34.1 µM (inactive)
same,EC50,[12],14.2 µM (active)
Nc1cc(SCc2ccc(Cl)cc2Cl)ncn1,EC50,[11],> 99 µM (inactive)
same,EC50,[12],> 99 µM (inactive)
CCOC(=O)N1CCC(NC(=O)C2CCCN(Cc3nc(-c4cccc(Cl)c4)oc3C)C2)CC1 (configuration not stated),AC50,HEK293,2.51 µM (active)
same,IC50,[1],6.92 µM (active)
same,AC50,INS1,3.71 µM (active)
same,AC50,[8],9.5 µM (active)
same,AC50,[9],55.4 µM (active)
same,AC50,[10],1.81 µM (active)
C=CCn1/c(=N/C(=O)c2sc3ccccc3c2Cl)sc2cc(S(N)(=O)=O)ccc21,IC50,[14],4.39 µM (active)
same,IC50,Melanocortin receptor 4 [15],30.7 µM (inactive)
same,IC50,[3],12.5 µM (active)
same,IC50,[4],> 100 µM (inactive)
same,IC50,[16],> 64.6 µM (inactive)
same,IC50,Prothrombin,> 100 µM (inactive)
CCCn1c2ccccc2c2cnn(CC(=O)NCCCN3CCN(c4ccccc4)CC3)c(=O)c21,IC50,[1],2.49 µM (active)
same,IC50,[2],2.84 µM (active)
O=C1OC(c2ccccc2)(c2cc(Br)ccc2O)c2ccccc21 (configuration not stated),EC50,Melanocortin receptor 4 [5],> 89.2 µM (inactive)
C/C(CC(C)C)=N/Nc1ccc([N+](=O)[O-])cc1[N+](=O)[O-],IC50,[17],155 µM (inactive)
CC(C)NC(=O)Nc1cccc2c1O[C@H](CN(C)Cc1ccc(C(=O)Nc3ccccc3N)cc1)[C@H](C)CN([C@@H](C)CO)C2=O,AC50,[18],2.95 µM (active)
COc1ccccc1Cc1c(-c2cccc(Br)c2)nc2ccc(Cl)cn12,IC50,[3],8.48 µM (active)
same,IC50,[4],> 100 µM (inactive)
same,IC50,Prothrombin,13 µM (active)
